Data taken from US20130149415A1, “Use of manganese for enhancing the growth of L.casei in mixed cultures” (priority 2010, published 2013).
Like-named read-outs stand apart in the source and are kept apart here.

How the values were obtained:
[1] = tested on: Lactobacillus casei subsp. paracasei DN-114 121; experiment: Cell count of Lactobacillus casei subsp. paracasei co-cultured with yogurt ferments in dairy medium; type: cell-based; details: for ratio count.Mn/count. J + 1 / ratio count.Mn/count. J + 3: Mn 20 mg/L vs without Mn; for Count ufc/ml at +10° C. J + 1 / Count ufc/ml at +10° C. J + 3: Mn 20 mg/L
Procedure: Medium A and medium B are inoculated with Lactobacillus casei subsp. paracasei DN-114 121 (3.80×10^7 CFU/ml), and a yogurt ferment (DN 542 142) consisting of: Streptococcus thermophilus DN-001 640 (10^6 CFU/ml), Streptococcus thermophilus DN-001 336 (2. 10^6 CFU/ml), Streptococcus thermophilus DN-001 236 (7. 10^5 CFU/ml) and Lactobacillus bulgaricus DN-100 290 (10^5 CFU/ml).
Fermentation was conducted at 36° C., and monitored by measuring the decrease of pH in the culture medium. Fermentation was stopped by transferring the preparation at 4° C. when a target pH of 4.6 was reached.
(§1) The population of Lactobacillus casei subsp. paracasei, was evaluated at J+3 by cell count analysis. Cell count analysis was performed by serial dilutions of the fermented medium with tryptone salt solution, and plating on Petri dishes with appropriate agar medium: MRS Agar containing 1.5 g/l of BactoOXGALL (DIFCO) for Lactobacillus casei.
(§2) Petri dishes were incubated at 37° C. during 96 H in anaerobic conditions (5% CO2).
Two yogurt ferments were tested in combination with Lactobacillus casei: DN 542 142 described above, and DN 543 043, consisting of a strain of Streptococcus thermophilus (DN-.001 171) and a strain of Lactobacillus bulgaricus (DN-100 182).
Lactobacillus casei subsp. paracasei DN-114 121 was inoculated at 3.8 10^7 CFU/ml.
DN 542 142 was inoculated at 10^6 CFU/ml for Streptococcus thermophilus DN-001 640; 2.10^6 CFU/ml for Streptococcus thermophilus DN-001 336; 7.10^5 CFU/ml for Streptococcus thermophilus DN-001 236, and 10^5 CFU/ml for Lactobacillus bulgaricus DN-100 290.
DN 543 043 was inoculated at 2.10^6 CFU/ml for Streptococcus thermophilus DN-001 171; and 7.10^4 CFU/ml for Lactobacillus bulgaricus DN-100 182.
Fermentation was conducted at 36° C., and monitored by measuring the decrease of pH in the culture medium. Fermentation was stopped by transferring the preparation at 4° C. when a target pH of about 4.6 (in the case of the co-culture with the yogurt ferment DN 542 142), or of about 4.45 (in the case of the co-culture with the yogurt ferment DN 543 043) was reached.
The population of Lactobacillus casei subsp. paracasei was evaluated after 1 day (J+1) and 3 days (J+3) incubation at 10° C.
(§3) The same experimentations as in Example 1 were performed with co-cultures of Lactobacillus casei subsp. paracasei DN-114 121 or Lactobacillus casei subsp. rhamnosus DN-116 010 with the yogurt ferment DN 543 043 described above, or the yogurt ferment DN 522 044, consisting of a strain of Streptococcus thermophilus (DN-001 143), Streptococcus thermophilus (DN-001 257) and a strain of Lactobacillus lactis (DN-111 224).
(§4) Fermentation was conducted at 36° C., and monitored by measuring the decrease of pH in the culture medium. Fermentation was stopped by transfering the preparation at 4° C. when a target pH of about 4.6 was reached.
(§5) The population of Lactobacillus casei subsp. paracasei was evaluated after 1 day (J+1) incubation at 10° C.

[2] = tested on: Streptococcus thermophilus and Lactobacillus bulgaricus; experiment: Acidification kinetics of the co-cultures (monitoring of yogurt bacteria growth by pH decrease); type: cell-based
Description: The populations of Streptococcus thermophilus and Lactobacillus bulgaricus were not evaluated by cell counts, but by the evaluation of the acidification kinetics. It is well known that Streptococcus thermophilus and Lactobacillus bulgaricus grow faster in milk than L. casei and their lactic acid productions are directly correlated to their growth. Also, in the present invention, the monitoring of acidification corresponds to the monitoring of Streptococcus thermophilus and Lactobacillus bulgaricus growth.

[3] = tested on: Lactobacillus casei subsp. rhamnosus DN-116 010; details: for paracasei ou rhamnosus count. num. Mn/count. J + 1 / Count ufc/ml at +10° C. Count. J + 1 paracasei ou rhamnosus: 543 043 + 116 010
Procedure: as §1, §2, §3
Lactobacillus casei subsp. rhamnosus DN-116 010 was inoculated at 5.8 10^7. CFU/ml.
DN 543 043 was inoculated at 2 10^6 CFU/ml for Streptococcus thermophilus DN-001 171; and 7 10^4 CFU/ml for Lactobacillus bulgaricus DN-100 182.
as §4, §5

[4] = addition of 20 mg/l of manganese, Example 1 co-cultures (DN 542 142 or DN 543 043 + DN-114 121)

With monohydrate manganese sulfate [Mn] the “paracasei ou rhamnosus count. num. Mn/count. J + 1” value ([1]; 522 044 + 114 121, 20 mg/L Mn vs 0 mg/L Mn) was 2.3, the “Count ufc/ml at +10° C. Count. J + 1 paracasei ou rhamnosus” value ([1]; 522 044 + 114 121, 20 mg/L Mn) was 3.25E+08 ufc/ml and the “ratio count.Mn/count. J + 1” value ([1]; 542 142 + 114 121) was 1.9. For the same substance, the “ratio count.Mn/count. J + 3” value ([1]; 542 142 + 114 121) was 1.7, the “Count ufc/ml at +10° C. J + 1” value ([1]; 542 142 + 114 121) was 1.15E+08 ufc/ml and the “Count ufc/ml at +10° C. J + 3” value ([1]; 542 142 + 114 121) was 1.61E+08 ufc/ml. The “paracasei ou rhamnosus count. num. Mn/count. J + 1” value ([1]; 543 043 + 114 121, 0.5 mg/L Mn vs 0 mg/L Mn) was 2.2, the “Count ufc/ml at +10° C. Count. J + 1 paracasei ou rhamnosus” value ([1]; 543 043 + 114 121, 0.5 mg/L Mn) was 2.99E+08 ufc/ml and the “paracasei ou rhamnosus count. num. Mn/count. J + 1” value ([1]; 543 043 + 114 121, 20 mg/L Mn vs 0 mg/L Mn) was 2.3. The “Count ufc/ml at +10° C. Count. J + 1 paracasei ou rhamnosus” value ([1]; 543 043 + 114 121, 20 mg/L Mn) was 3.13E+08 ufc/ml, the “paracasei ou rhamnosus count. num. Mn/count. J + 1” value ([1]; 543 043 + 114 121, 60 mg/L Mn vs 0 mg/L Mn) was 2.4 and the “Count ufc/ml at +10° C. Count. J + 1 paracasei ou rhamnosus” value ([1]; 543 043 + 114 121, 60 mg/L Mn) was 3.25E+08 ufc/ml. For the same substance, the “ratio count.Mn/count. J + 1” value ([1]; 543 043 + 114 121) was 1.9, the “ratio count.Mn/count. J + 3” value ([1]; 543 043 + 114 121) was 2.1 and the “Count ufc/ml at +10° C. J + 1” value ([1]; 543 043 + 114 121) was 2.70E+08 ufc/ml. The “Count ufc/ml at +10° C. J + 3” value ([1]; 543 043 + 114 121) was 3.00E+08 ufc/ml, the “effect on the population of the bacteria of the L. casei group” value ([1]; Example 2, Lactobacillus casei ssp paracasei, 0.5, 20, 60 mg/l manganese) was “selectively increases the population” and the “effect on the population of Lactobacillus casei” value [1, 4] was “selectively increases the population of Lactobacillus casei”. For the same substance, the “effect on the acidification kinetics of the co-cultures” value ([2]; Example 2 co-cultures, 0.5, 20, 60 mg/l manganese) was “no effect”, the “effect on the acidification kinetics of the co-cultures” value [2, 4] was “no effect” and the “paracasei ou rhamnosus count. num. Mn/count. J + 1” value ([3]; 20 mg/L Mn vs 0 mg/L Mn) was 1.3. For the same substance, the “Count ufc/ml at +10° C. Count. J + 1 paracasei ou rhamnosus” value ([3]; 20 mg/L Mn) was 3.20E+08 ufc/ml, the “paracasei ou rhamnosus count. num. Mn/count. J + 1” value ([3]; 60 mg/L Mn vs 0 mg/L Mn) was 1.3 and the “Count ufc/ml at +10° C. Count. J + 1 paracasei ou rhamnosus” value ([3]; 60 mg/L Mn) was 3.30E+08 ufc/ml. The “effect on the population of the bacteria of the L. casei group” value ([3]; Example 2, Lactobacillus casei ssp rhamnosus, 20, 60 mg/l manganese) was “selectively increases the population”.
